Here are results for nine molecules from ChEMBL document CHEMBL1145148, “Discovery of (2S)-N-[(1R)-2-[4-cyclohexyl-4-[[(1,1-dimethylethyl)amino]carbonyl]-1-piperidinyl]-1-[(4-fluorophenyl)methyl]-2-oxoethyl]-4-methyl-2-piperazinecarboxamide (MB243), a potent and selective melanocortin subtype-4 receptor agonist” (Bioorg Med Chem Lett, 2005).

Structures are written as SMILES. Several values for one entry are separate records, joined by “and”; a condition that tells them apart may be missing. Identical values can stand only once.

Data set [1] concerns the target T1, Melanocortin receptor 3 (Homo sapiens, UniProt P41968). The data set is described as follows: Concentration of compound at 50% maximum cAMP accumulation at human melanocortin-3 receptor. It is filed as functional. (cAMP levels reflect the balance of adenylyl cyclase and phosphodiesterase activity.)
Data set [2] has as its target T2, Melanocortin receptor 4 (Homo sapiens, UniProt P32245). The data set is described as follows: Concentration for 50% inhibition of human melanocortin-4 receptor expressed in CHO cells using [125I]NDP-alpha-MSH as radioligand. It is filed as cell-based.
Data set [3] deals with T1, Melanocortin receptor 3. The data set is described as follows: Effective concentration towards human melanocortin-3 receptor mediated cAMP accumulation in CHO cells. It is filed as functional, cell-based, Rattus norvegicus.
Data set [4] concerns the target T3, Melanocortin receptor 5 (Homo sapiens, UniProt P33032). The data set is described as follows: Effective concentration towards human melanocortin-5 receptor mediated cAMP accumulation in CHO cells. It is filed as functional, cell-based.
Data set [5] addresses T2, Melanocortin receptor 4. The data set is described as follows: Effective concentration towards human melanocortin-4 receptor mediated cAMP accumulation in CHO cells. It is filed as functional, cell-based.
Data set [6] concerns the target T3, Melanocortin receptor 5. The data set is described as follows: Concentration of compound at 50% maximum cAMP accumulation at human melanocortin-5 receptor. It is filed as functional.
The nature of data set [7]: Half life at 1 mg/kg intravenous administration and 5 mg/kg peroral administration. It is filed as ADME, organism-based. As to conditions: rat, in vivo.
A short description of data set [8]: Clearance at 0.5 mg/kg intravenous administration and 2 mg/kg peroral administration. It is filed as ADME, organism-based, Canis lupus familiaris. As to conditions: dog, in vivo.
Data set [9] in a line: Clearance at 1 mg/kg intravenous administration and 5 mg/kg peroral administration. It is filed as ADME, organism-based. As to conditions: rat, in vivo.
Data set [10] addresses Melanocortin receptor 4 (Mus musculus) (UniProt P56450). The data set is described as follows: Concentration of compound at 50% maximum cAMP accumulation at mouse melanocortin-4 receptor. It is filed as functional.
Data set [11] has as its target T4, Melanocyte-stimulating hormone receptor (Homo sapiens, UniProt Q01726). The data set is described as follows: Concentration for 50% inhibition of human melanocortin-1 receptor expressed in CHO cells using [125I]-NDP-alpha-MSH as radioligand. It is filed as cell-based.
Target sequence in this assay (Q01726 whole entry): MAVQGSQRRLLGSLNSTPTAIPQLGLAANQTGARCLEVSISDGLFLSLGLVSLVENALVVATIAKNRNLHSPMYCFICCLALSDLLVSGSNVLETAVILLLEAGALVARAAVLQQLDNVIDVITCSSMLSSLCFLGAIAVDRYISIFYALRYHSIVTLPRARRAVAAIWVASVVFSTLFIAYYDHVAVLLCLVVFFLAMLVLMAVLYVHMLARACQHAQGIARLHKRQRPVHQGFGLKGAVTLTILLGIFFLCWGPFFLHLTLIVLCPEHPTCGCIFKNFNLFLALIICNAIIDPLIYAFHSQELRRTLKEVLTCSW
For another data set, the system named is Rattus norvegicus. The data set is described as follows: Percent increase in erectile activity in rats after intravenous administration of 3 mg/kg compound. It is filed as functional.
Data set [12] in a line: Half life at 0.5 mg/kg intravenous administration and 2 mg/kg peroral administration. As to conditions: dog, in vivo. It is filed as ADME, organism-based, Canis lupus familiaris.
Data set [13] is described as follows: Vdss at 1 mg/kg intravenous administration and 5 mg/kg peroral administration. It is filed as ADME, organism-based. The settings on record: rat, in vivo, read-out: Vdss.
Data set [14] can be described thus: Vdss at 0.5 mg/kg intravenous administration and 2 mg/kg peroral administration. It is filed as ADME, organism-based, Canis lupus familiaris. As to conditions: dog, in vivo, read-out: Vdss.
Data set [15] deals with T4, Melanocyte-stimulating hormone receptor. The data set is described as follows: Effective concentration towards human melanocortin-1 receptor mediated cAMP accumulation in CHO cells. It is filed as functional, cell-based.
Target sequence in this assay (Q01726 whole entry): as above
Data set [16] can be described thus: Clearance at 1 mg/kg intravenous administration and 2 mg/kg peroral administration. It is filed as ADME, organism-based. The settings on record: cercopithecidae, in vivo.
A short description of data set [17]: Maximum time taken by the compound at 1 mg/kg intravenous administration and 2 mg/kg peroral administration. It is filed as ADME, organism-based. As to conditions: cercopithecidae, in vivo, po.
The target in data set [18] is T1, Melanocortin receptor 3. The data set is described as follows: Concentration for 50% inhibition of human melanocortin-3 receptor expressed in CHO cells using [125I]NDP-alpha-MSH as radioligand. It is filed as cell-based.
The nature of data set [19]: Half life at 1 mg/kg intravenous administration and 2 mg/kg peroral administration. It is filed as ADME, organism-based. As to conditions: cercopithecidae, in vivo.
Data set [20] addresses T4, Melanocyte-stimulating hormone receptor. The data set is described as follows: Concentration of compound at 50% maximum cAMP accumulation at human melanocortin-1 receptor. It is filed as functional.
Target sequence in this assay (Q01726 whole entry, looked up): as the sequence (Q01726 whole entry) above
Data set [21] in a line: Maximum time taken by the compound at 1 mg/kg intravenous administration and 5 mg/kg peroral administration. It is filed as ADME, organism-based. As to conditions: rat, in vivo, po.
For data set [22], the target named is Melanocortin receptor 3 (Rattus norvegicus) (UniProt P32244). The data set is described as follows: Concentration of compound at 50% maximum cAMP accumulation at rat melanocortin-3 receptor. It is filed as functional.
Chain of Melanocortin receptor 3 (Rattus norvegicus) (P32244 whole entry): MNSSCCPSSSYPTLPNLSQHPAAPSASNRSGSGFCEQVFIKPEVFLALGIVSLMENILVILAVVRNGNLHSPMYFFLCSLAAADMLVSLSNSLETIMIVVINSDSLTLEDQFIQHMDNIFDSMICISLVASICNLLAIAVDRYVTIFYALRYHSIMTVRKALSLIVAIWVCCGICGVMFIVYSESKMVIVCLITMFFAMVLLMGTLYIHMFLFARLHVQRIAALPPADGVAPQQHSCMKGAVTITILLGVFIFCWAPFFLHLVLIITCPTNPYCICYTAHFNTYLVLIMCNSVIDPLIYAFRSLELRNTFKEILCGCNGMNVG
For data set [23], the target named is Melanocortin receptor 4 (Rattus norvegicus) (UniProt P70596). The data set is described as follows: Concentration of compound at 50% maximum cAMP accumulation at rat melanocortin-4 receptor. It is filed as functional.
Chain of Melanocortin receptor 4 (Rattus norvegicus) (P70596 whole entry): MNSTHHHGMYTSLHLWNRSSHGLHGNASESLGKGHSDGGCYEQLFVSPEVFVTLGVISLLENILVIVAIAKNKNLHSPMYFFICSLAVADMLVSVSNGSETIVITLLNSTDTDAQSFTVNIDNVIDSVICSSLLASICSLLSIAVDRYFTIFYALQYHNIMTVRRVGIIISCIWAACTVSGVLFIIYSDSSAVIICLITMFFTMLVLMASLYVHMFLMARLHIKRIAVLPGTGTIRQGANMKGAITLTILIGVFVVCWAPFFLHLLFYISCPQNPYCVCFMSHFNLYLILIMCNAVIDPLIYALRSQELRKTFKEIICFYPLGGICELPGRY
Data set [24] in a line: Vdss at 1 mg/kg intravenous administration and 2 mg/kg peroral administration. It is filed as ADME, organism-based. As to conditions: cercopithecidae, in vivo, read-out: Vdss.
For data set [25], the target named is T3, Melanocortin receptor 5. The data set is described as follows: Concentration for 50% inhibition of human melanocortin-5 receptor expressed in CHO cells using [125I]NDP-alpha-MSH as radioligand. It is filed as cell-based.
Data set [26] is described as follows: Percent bioavailability at 1 mg/kg intravenous administration and 2 mg/kg peroral administration. The settings on record: cercopithecidae, in vivo, po. It is filed as ADME, organism-based.
The nature of data set [27]: Maximum time taken by the compound at 0.5 mg/kg intravenous administration and 2 mg/kg peroral administration. It is filed as ADME, organism-based, Canis lupus familiaris. As to conditions: dog, in vivo, po.
The nature of data set [28]: Percent bioavailability at 0.5 mg/kg intravenous administration and 2 mg/kg peroral administration. It is filed as ADME, organism-based, Canis lupus familiaris. As to conditions: dog, in vivo, po.
Data set [29] can be described thus: Percent bioavailability at 1 mg/kg intravenous administration and 5 mg/kg peroral administration. As to conditions: rat, in vivo, po. It is filed as ADME, organism-based.
The nature of data set [30]: Percentage of cAMP accumulation at 10 uM of compound relative toa-MSH was determined. It is filed as functional.

The IC50 is the midpoint of a concentration-inhibition curve. Higher therefore signals weaker potency in that assay. The term EC50 denotes the concentration that produces a half-maximal response. The low end stands for greater potency, the high end for weaker potency. By half-life is commonly meant the time needed for the level to fall by half in the phase considered. The term Tmax denotes the time from dosing to the highest level. The bioavailability is dose-corrected exposure relative to a reference, in per cent. Read a high bioavailability as much systemic uptake.

T1 sequence (P41968 whole entry): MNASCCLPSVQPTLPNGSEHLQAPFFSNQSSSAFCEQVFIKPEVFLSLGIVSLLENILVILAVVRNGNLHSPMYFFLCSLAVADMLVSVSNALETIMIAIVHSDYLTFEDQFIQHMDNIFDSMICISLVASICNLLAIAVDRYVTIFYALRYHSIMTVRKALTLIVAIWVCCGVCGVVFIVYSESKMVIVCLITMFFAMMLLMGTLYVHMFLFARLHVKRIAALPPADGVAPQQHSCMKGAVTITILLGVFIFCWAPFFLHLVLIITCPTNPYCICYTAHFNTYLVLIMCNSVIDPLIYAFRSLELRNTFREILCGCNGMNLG
T3 sequence (P33032 whole entry): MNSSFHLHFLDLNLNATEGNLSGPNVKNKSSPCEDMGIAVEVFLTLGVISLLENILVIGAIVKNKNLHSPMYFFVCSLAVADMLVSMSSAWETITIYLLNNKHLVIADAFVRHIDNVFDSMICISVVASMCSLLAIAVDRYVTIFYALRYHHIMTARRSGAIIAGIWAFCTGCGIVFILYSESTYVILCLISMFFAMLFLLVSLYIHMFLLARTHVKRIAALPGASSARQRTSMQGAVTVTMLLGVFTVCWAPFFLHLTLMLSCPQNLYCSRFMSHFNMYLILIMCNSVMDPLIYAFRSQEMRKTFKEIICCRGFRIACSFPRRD
T2 sequence (P32245 whole entry): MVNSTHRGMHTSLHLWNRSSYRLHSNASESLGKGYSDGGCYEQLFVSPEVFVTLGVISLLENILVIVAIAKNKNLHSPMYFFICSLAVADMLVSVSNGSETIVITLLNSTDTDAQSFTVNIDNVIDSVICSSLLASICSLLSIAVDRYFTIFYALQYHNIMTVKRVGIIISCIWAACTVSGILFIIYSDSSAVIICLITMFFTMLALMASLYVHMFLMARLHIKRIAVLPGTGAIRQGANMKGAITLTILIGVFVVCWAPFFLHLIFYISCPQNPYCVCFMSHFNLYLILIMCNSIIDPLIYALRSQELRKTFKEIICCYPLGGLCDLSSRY
Chain of Melanocortin receptor 4 (Mus musculus) (P56450 whole entry): as the sequence (P70596 whole entry) above, with H21Y, S36P, T199S, A239T, P329S, G330S counted along it

For the molecule `CN1CCNC[C@H]1C(=O)N[C@H](Cc1ccc(F)cc1)C(=O)N1CCC(C(=O)NC(C)(C)C)(C2CCCCC2)CC1`, the cAMP accumulation at Melanocortin receptor 3 [1] and at Melanocortin receptor 5 [6] was 19% throughout. The IC50 at Melanocortin receptor 4 [2] came out at 87 nM. In addition, the results for the EC50 at Melanocortin receptor 3 [3], on Melanocortin receptor 5 [4] and at Melanocortin receptor 4 [5] were 2900 nM, 3300 nM and 29 nM, respectively.
In the case of `CN1CCN[C@H](C(=O)N[C@H](Cc2ccc(F)cc2)C(=O)N2CCC(C(=O)NC(C)(C)C)(C3CCCCC3)CC2)C1`, the cAMP accumulation on Melanocortin receptor 3 [1] was found to be 11%; in [10], 66%; in data set [20] it was 85%; in [22], 21%; in [23] it was 76%; at Melanocortin receptor 5 [6], 32%. The half-life in data set [7] is 1.6 h; in data set [12], 4.1 h; in data set [19], 1.3 h. Besides, the clearance was 5.6 mL/min/kg in [8], 48.7 mL/min/kg in data set [9] and 15.7 mL/min/kg in data set [16]. The 50% inhibitory concentration (IC50) in data set [11] was 1700 nM; on Melanocortin receptor 4 [2] it was 8 nM and 7 nM and 16 nM (2×); on Melanocortin receptor 3 [18] it was 2300 nM and 1100 nM and 1600 nM; on Melanocortin receptor 5 [25], 2400 nM and 13000 nM. Further, the Activity with Rattus norvegicus is on record as 21.2%. The Vd was 5.4 L/kg in [13], 1.2 L/kg in data set [14] and 1.2 L/kg in data set [24]. The EC50 in data set [15] is 350 nM; on Melanocortin receptor 3 [3], 990 nM; at Melanocortin receptor 5 [4], 1900 nM; at Melanocortin receptor 5 [4] (cho), 1900 nM; on Melanocortin receptor 4 [5], 11 nM (2×) and 6 nM and 16 nM. Further, the Tmax in data set [17] turned out to be 5 h; in data set [21] it was 1.54 h; in data set [27], 0.75 h. The bioavailability in data set [26] was determined as 11%; in data set [28] it was 17%; in data set [29] it was 9%. The Activation in [30] is 4% and 7% and 11%.
Consider `C[C@H](N)C(=O)N1CCN[C@H](C(=O)N[C@H](Cc2ccc(F)cc2)C(=O)N2CCC(C(=O)NC(C)(C)C)(C3CCCCC3)CC2)C1`, for which the cAMP accumulation at Melanocortin receptor 3 [1] amounted to 12%; on Melanocortin receptor 5 [6] it was 27%. This molecule displayed an IC50 at Melanocortin receptor 4 [2] of 30 nM. For the same molecule, the concentration for a half-maximal effect (EC50) on Melanocortin receptor 5 [4] worked out at 2000 nM; on Melanocortin receptor 4 [5], 270 nM.
Taken in the same sequence, the figures for `CC(C)CN1CCN[C@H](C(=O)N[C@H](Cc2ccc(F)cc2)C(=O)N2CCC(C(=O)NC(C)(C)C)(C3CCCCC3)CC2)C1` were 19%, 22%, 8 nM, 340 nM and 34 nM.
Taken in the same sequence, the figures for `CCN1CCN[C@H](C(=O)N[C@H](Cc2ccc(F)cc2)C(=O)N2CCC(C(=O)NC(C)(C)C)(C3CCCCC3)CC2)C1` were 3%, 20%, 20 nM, 840 nM and 52 nM.
Take `CN1CCN[C@H](C(=O)N[C@@H](Cc2ccc(F)cc2)C(=O)N2CCC(C(=O)NC(C)(C)C)(C3CCCCC3)CC2)C1`: the cAMP accumulation at Melanocortin receptor 3 [1] turned out to be 1%; on Melanocortin receptor 5 [6] it was 3%.
For the molecule `CN1CCN[C@@H](C(=O)N[C@H](Cc2ccc(F)cc2)C(=O)N2CCC(C(=O)NC(C)(C)C)(C3CCCCC3)CC2)C1`, the cAMP accumulation at Melanocortin receptor 3 [1] was determined as 7%; on Melanocortin receptor 5 [6], 39%. In addition, the IC50 at Melanocortin receptor 4 [2] worked out at 52 nM. Moreover, the EC50 on Melanocortin receptor 5 [4] stood at 2700 nM; on Melanocortin receptor 4 [5], 82 nM.
Take `CC(C)(C)NC(=O)C1(C2CCCCC2)CCN(C(=O)[C@@H](Cc2ccc(F)cc2)NC(=O)[C@@H]2CN(CC(F)F)CCN2)CC1`: the cAMP accumulation is 6% at Melanocortin receptor 3 [1] and 19% on Melanocortin receptor 5 [6]. The same molecule showed an IC50 at Melanocortin receptor 4 [2] of 13 nM. Also, the EC50 on Melanocortin receptor 5 [4] came to 510 nM; on Melanocortin receptor 4 [5], 52 nM.
The like results for `CC(C)(C)NC(=O)C1(C2CCCCC2)CCN(C(=O)[C@@H](Cc2ccc(F)cc2)NC(=O)[C@@H]2CNCCN2C(=O)OC(C)(C)C)CC1` were, in that order, 10%, 43%, 18 nM, 1800 nM and 13 nM.
